# Legend:
# Bacillus anthracis = assay: Antibacterial activity against Bacillus anthracis Sterne F32; assay type: functional
# Staphylococcus aureus = assay: Antibacterial activity against Staphylococcus aureus ATCC 25923; assay type: functional
# [1] = system: Staphylococcus epidermidis; assay: Antibacterial activity against Staphylococcus epidermidis ATCC 12228; assay type: functional
# Escherichia coli = assay: Antibacterial activity against Escherichia coli MC1061; assay type: functional
# Enterobacter cloacae = assay: Antibacterial activity against Enterobacter cloacae ATCC 13047; assay type: functional
# Klebsiella pneumoniae = assay: Antibacterial activity against Klebsiella pneumoniae ATCC 27736; assay type: functional
# Pseudomonas aeruginosa = assay: Antibacterial activity against Pseudomonas aeruginosa ATCC 27853; assay type: functional
# Salmonella enterica = assay: Antibacterial activity against Salmonella enterica ATCC 14028; assay type: functional
# Acinetobacter baumannii [2] = assay: Antibacterial activity against Acinetobacter baumannii ATCC 19606; assay type: functional
# Acinetobacter baumannii [3] = assay: Antibacterial activity against Acinetobacter baumannii BAA1605; assay type: functional
# HEK293 = assay: Cytotoxicity against HEK293 cells at 8 ug/ml; assay type: toxicity, cell-based; conditions: human, dose 8 µg/ml
# [4] = Hemolytic activity in mouse RBC at 8 ug/ml incubated for 1 hr; assay type: toxicity, cell-based, Erythrocyte; conditions: red blood cells (erythrocytes), at 8 µg/mL, read-out: Activity
# Erythrocyte = assay: Hemolytic activity in mouse RBC at 32 ug/ml incubated for 1 hr; assay type: toxicity, cell-based; conditions: erythrocyte, 1 h, dose 32 µg/ml
SMILES,MIC (Bacillus anthracis),MIC (Staphylococcus aureus),MIC [1],MIC (Escherichia coli),MIC (Enterobacter cloacae),MIC (Klebsiella pneumoniae),MIC (Pseudomonas aeruginosa),MIC (Salmonella enterica),MIC (Acinetobacter baumannii [2]),MIC (Acinetobacter baumannii [3]),Activity (HEK293),"hemolysis at 1 h, 8 ug/ml [4]",Activity (Erythrocyte)
O=C(NNc1ccc(Cl)cc1)c1ccccn1,> 64 µg/mL,> 64 µg/mL,> 64 µg/mL,16 µg/mL,64 µg/mL,64 µg/mL,> 64 µg/mL,64 µg/mL,0.25 µg/mL,0.25 µg/mL,Non-Toxic,< 10%,Non-Toxic
O=C(NNC1CCCCC1)c1cccnc1,–,–,–,–,–,–,–,–,–,–,Non-Toxic,< 10%,Non-Toxic
O=C(NNc1cccc(Cl)c1)c1ccccn1,> 64 µg/mL,> 64 µg/mL,> 64 µg/mL,4 µg/mL,4 µg/mL,16 µg/mL,> 64 µg/mL,16 µg/mL,2 µg/mL,1 µg/mL,Non-Toxic,< 10%,Non-Toxic
CCC(=O)NNc1cccc(F)c1,–,–,–,–,–,–,–,–,–,–,Non-Toxic,< 10%,Non-Toxic
CCOC(=O)CNNC(=O)c1cccc(F)n1,–,–,–,–,–,–,–,–,–,–,Non-Toxic,< 10%,Non-Toxic
O=C(NNC1CCCCC1)c1ccc(F)cc1F,–,–,–,–,–,–,–,–,–,–,Non-Toxic,< 10%,Non-Toxic
O=C(NNC1CCCCC1)c1cnccn1,–,–,–,–,–,–,–,–,–,–,Non-Toxic,< 10%,Non-Toxic
O=C(NNC1CCCCC1)c1ccc2ccccc2n1,> 64 µg/mL,> 64 µg/mL,> 64 µg/mL,64 µg/mL,> 64 µg/mL,> 64 µg/mL,> 64 µg/mL,> 64 µg/mL,> 64 µg/mL,> 64 µg/mL,Non-Toxic,< 10%,Non-Toxic
O=C(NNc1ccc(Cl)cc1)c1ccco1,> 64 µg/mL,64 µg/mL,64 µg/mL,16 µg/mL,4 µg/mL,16 µg/mL,> 64 µg/mL,16 µg/mL,0.5 µg/mL,≤ 0.125 µg/mL,Non-Toxic,< 10%,Non-Toxic
O=C(NNc1ccc(Cl)cc1)c1cnccn1,–,–,–,–,–,–,–,–,–,–,Non-Toxic,< 10%,Non-Toxic
COc1cccc(NNC(=O)c2ccccn2)c1,–,–,–,–,–,–,–,–,–,–,Non-Toxic,< 10%,Non-Toxic
CCOC(=O)CNNC(=O)c1cnccn1,–,–,–,–,–,–,–,–,–,–,Non-Toxic,< 10%,Non-Toxic
O=C(NNc1cccc(F)c1)c1cnccn1,–,–,–,–,–,–,–,–,–,–,Non-Toxic,< 10%,Non-Toxic
O=C(NNc1cccc(F)c1)c1ncc(F)cc1F,–,–,–,–,–,–,–,–,–,–,Non-Toxic,< 10%,Non-Toxic
CCOC(=O)CNNC(=O)c1ccc(F)cn1,–,–,–,–,–,–,–,–,–,–,Non-Toxic,< 10%,Non-Toxic
O=C(NNc1ccc(Cl)cc1)c1cccc(F)n1,> 64 µg/mL,> 64 µg/mL,> 64 µg/mL,16 µg/mL,16 µg/mL,16 µg/mL,> 64 µg/mL,16 µg/mL,≤ 0.125 µg/mL,≤ 0.125 µg/mL,Non-Toxic,< 10%,Non-Toxic
O=C(NNc1cccc(F)c1)c1nc(F)ccc1F,–,–,–,–,–,–,–,–,–,–,Non-Toxic,< 10%,Non-Toxic
O=C(NNc1cccc(F)c1)c1cccc(Br)n1,–,–,–,–,–,–,–,–,–,–,Non-Toxic,< 10%,Non-Toxic
COc1ccc(NNC(=O)c2ccc(F)cn2)cc1,> 64 µg/mL,> 64 µg/mL,> 64 µg/mL,> 64 µg/mL,> 64 µg/mL,> 64 µg/mL,> 64 µg/mL,> 64 µg/mL,1 µg/mL,0.5 µg/mL,Non-Toxic,< 10%,Non-Toxic
O=C(NNc1cccc(F)c1)c1cccnc1,–,–,–,–,–,–,–,–,–,–,Non-Toxic,< 10%,Non-Toxic
C=CC(=O)NNc1ccc(Cl)cc1,> 64 µg/mL,64 µg/mL,64 µg/mL,16 µg/mL,16 µg/mL,16 µg/mL,> 64 µg/mL,16 µg/mL,0.25 µg/mL,0.25 µg/mL,Non-Toxic,< 10%,Non-Toxic

SMILES,MIC (Bacillus anthracis),MIC (Staphylococcus aureus),MIC [1],MIC (Escherichia coli),MIC (Enterobacter cloacae),MIC (Klebsiella pneumoniae),MIC (Pseudomonas aeruginosa),MIC (Salmonella enterica),MIC (Acinetobacter baumannii [2]),MIC (Acinetobacter baumannii [3]),Activity (HEK293),"hemolysis at 1 h, 8 ug/ml [4]",Activity (Erythrocyte)
O=C(NNc1ccc(Cl)cc1)c1ccc2ccccc2n1,> 64 µg/mL,> 64 µg/mL,> 64 µg/mL,16 µg/mL,> 64 µg/mL,> 64 µg/mL,> 64 µg/mL,> 64 µg/mL,0.5 µg/mL,0.5 µg/mL,Non-Toxic,< 10%,Non-Toxic
O=C(NNc1cccc(F)c1)c1cc2ccccc2[nH]1,–,–,–,–,–,–,–,–,–,–,Non-Toxic,< 10%,Non-Toxic
COc1cccc(NNC(=O)c2ccc(F)cn2)c1,> 64 µg/mL,> 64 µg/mL,64 µg/mL,> 64 µg/mL,> 64 µg/mL,> 64 µg/mL,> 64 µg/mL,> 64 µg/mL,0.5 µg/mL,0.5 µg/mL,Non-Toxic,< 10%,Non-Toxic
CCOC(=O)CNNC(=O)c1ccc2ccccc2n1,> 64 µg/mL,> 64 µg/mL,> 64 µg/mL,> 64 µg/mL,> 64 µg/mL,> 64 µg/mL,> 64 µg/mL,> 64 µg/mL,> 64 µg/mL,> 64 µg/mL,Non-Toxic,< 10%,Non-Toxic
O=C(NNc1cccc(F)c1)c1cccc(F)n1,–,–,–,–,–,–,–,–,–,–,Non-Toxic,< 10%,Non-Toxic
O=C(NNc1ccc(Cl)cc1)c1cccnc1,–,–,–,–,–,–,–,–,–,–,Non-Toxic,< 10%,Non-Toxic
O=C(NNc1ccc(Cl)cc1)c1cc2ccccc2[nH]1,> 64 µg/mL,> 64 µg/mL,> 64 µg/mL,> 64 µg/mL,> 64 µg/mL,> 64 µg/mL,> 64 µg/mL,> 64 µg/mL,0.5 µg/mL,0.25 µg/mL,Non-Toxic,< 10%,Non-Toxic
O=C(NNc1ccc(Cl)cc1)c1cnc2ccccc2n1,–,–,–,–,–,–,–,–,–,–,Non-Toxic,< 10%,Non-Toxic
O=C(NNc1cccc(F)c1)c1ccc(F)cc1F,–,–,–,–,–,–,–,–,–,–,Non-Toxic,< 10%,Non-Toxic
O=C(NNc1ccc(Cl)cc1)c1ccccc1,> 64 µg/mL,64 µg/mL,64 µg/mL,16 µg/mL,16 µg/mL,16 µg/mL,> 64 µg/mL,64 µg/mL,0.25 µg/mL,0.5 µg/mL,Non-Toxic,< 10%,Non-Toxic
CCC(=O)NNc1ccc(Cl)cc1,> 64 µg/mL,> 64 µg/mL,> 64 µg/mL,16 µg/mL,16 µg/mL,16 µg/mL,> 64 µg/mL,64 µg/mL,≤ 0.125 µg/mL,≤ 0.125 µg/mL,Non-Toxic,< 10%,Non-Toxic
CCOC(=O)CNNC(=O)c1ccccn1,–,–,–,–,–,–,–,–,–,–,Non-Toxic,< 10%,Non-Toxic
O=C(NNc1cccc(F)c1)c1ccccc1,–,–,–,–,–,–,–,–,–,–,Non-Toxic,< 10%,Non-Toxic
O=C(NNc1ccc(Cl)cc1)c1nc(F)ccc1F,–,–,–,–,–,–,–,–,–,–,Non-Toxic,< 10%,Non-Toxic
CCOC(=O)CNNC(=O)c1ccc(F)cc1F,–,–,–,–,–,–,–,–,–,–,Non-Toxic,< 10%,Non-Toxic
O=C(NNc1cccc(F)c1)c1cnc2ccccc2n1,–,–,–,–,–,–,–,–,–,–,Non-Toxic,< 10%,Non-Toxic
O=C(NNc1cccc(F)c1)c1ccccn1,–,–,–,–,–,–,–,–,–,–,Non-Toxic,< 10%,Non-Toxic
O=C(NNc1ccc(Cl)cc1)c1ccc(F)cc1F,> 64 µg/mL,> 64 µg/mL,> 64 µg/mL,16 µg/mL,16 µg/mL,> 64 µg/mL,> 64 µg/mL,> 64 µg/mL,0.25 µg/mL,0.25 µg/mL,Non-Toxic,< 10%,Non-Toxic
O=C(NNc1cccc(F)c1)c1ccco1,–,–,–,–,–,–,–,–,–,–,Non-Toxic,< 10%,Non-Toxic
O=C(NNc1cccc(F)c1)c1ccc(Br)cn1,–,–,–,–,–,–,–,–,–,–,Non-Toxic,< 10%,Non-Toxic
O=C(NNc1ccc(Cl)cc1)c1ncc(F)cc1F,–,–,–,–,–,–,–,–,–,–,Non-Toxic,< 10%,Non-Toxic
